According to patent US9877999B2, “Methods for treating metastatic stage prostate cancer” (Ferring International SA, priority 2008, dated 2018):
Where “and” joins values, the source holds several entries; their conditions need not be identical. Equal entries are not always repeated. Square brackets hold non-standard residues; d marks the D form. Peptide text beside a SMILES is read from it. * marks the point of attachment. dPhe(4-NHCONH2) = NC(=O)Nc1ccc(C[C@@H](N)C(=O)O)cc1; Dihydroorotyl(S) = O=C1C[C@@H](C(=O)*)NC(=O)N1; dPhe(4-Cl) = N[C@H](Cc1ccc(Cl)cc1)C(=O)O; Phe(4-NH2) = Nc1ccc(C[C@H](N)C(=O)O)cc1; d2Nal = N[C@H](Cc1ccc2ccccc2c1)C(=O)O; Lys(iPr) = CC(C)NCCCC[C@H](N)C(=O)O; d3Pal = N[C@H](Cc1cccnc1)C(=O)O

Test system: prostate-specific antigen (PSA)
Experiment: PSA failure in prostate cancer patients (clinical study CS21)
Assay type: in vivo, human
Conditions: for proportion of PSA failures: degarelix 240/80 mg
Procedure: For this analysis, PSA failure (a secondary endpoint) was defined as two consecutive increases in PSA of 50% and 5 ng/mL compared with nadir. The time to PSA failure was defined as the number of days from first dosing to where an increase in serum PSA of 50% from nadir and 5 ng/mL, measured on two consecutive occasions at least two weeks apart, was noted. The second occasion was the time point of meeting the criterion. PSA failure rates were also analyzed by disease stage and baseline PSA level.
The secondary efficacy endpoints were: the proportion of patients with testosterone surge during the first 2 weeks of treatment; the proportion of patients with testosterone level ≦0.5 ng/mL at day 3; the percentage change in PSA from baseline to day 28; the probability of testosterone ≦0.5 ng/mL from day 56 through day 364; the levels of serum testosterone, LH, FSH and PSA over time through the study; the time to PSA failure, defined as two consecutive increases of 50%, and at least 5 ng/mL as compared to nadir; degarelix concentration over the first month and trough levels at day 308 and 336; the frequency and size of testosterone increases at day 255 and/or 259 compared to the testosterone level at day 252; the quality of life on days 0, 28, 84, 168 and end of study visit; the frequency and intensity of hot flushes experienced (scored daily from study start until end of study visit). In addition, two further secondary endpoints were added: the probability of sufficient testosterone response from day 28 through day 364 (a patient was considered to have insufficient testosterone response if they had one testosterone value >1.0 ng/mL or two consecutive testosterone values >0.5 ng/mL at day 28 onwards); and the percentage change in PSA from baseline to day 14.
The secondary endpoints, probability of testosterone ≦0.5 ng/mL from day 56 through day 364, time to PSA failure, and probability of sufficient testosterone response from day 28 through day 364 were analyzed by the Kaplan-Meier method.

## CC(=O)N[C@H](Cc1ccc2ccccc2c1)C(=O)N[C@H](Cc1ccc(Cl)cc1)C(=O)N[C@H](Cc1cccnc1)C(=O)N[C@@H](CO)C(=O)N[C@@H](Cc1ccc(NC(=O)[C@@H]2CC(=O)NC(=O)N2)cc1)C(=O)N[C@H](Cc1ccc(NC(N)=O)cc1)C(=O)N[C@@H](CC(C)C)C(=O)N[C@@H](CCCCNC(C)C)C(=O)N1CCC[C@H]1C(=O)N[C@H](C)C(N)=O [degarelix, D-Alaninamide, N-acetyl-3-(2-naphthalenyl)-D-alanyl-4-chloro-D-phenylalanyl-3-(3-pyridinyl)-D-alanyl-L-seryl-4-[[[(4S)-hexahydro-2,6-dioxo-4-pyrimidinyl]carbonyl]amino]-L phenylalanyl-4-[(aminocarbonyl)amino]-D-phenylalanyl-L leucyl-N6-(1-methylethyl)-L-lysyl-L-prolyl] (Ac-[d2Nal][dPhe(4-Cl)][d3Pal]S[Phe(4-NH2)](Dihydroorotyl(S))[dPhe(4-NHCONH2)]L[Lys(iPr)]P[dA]-NH2)
Degarelix 240/80 mg group
  probability of completing the study without experiencing PSA failure by day 364: 91.1% and 91.2%
Patients with baseline PSA>50 ng/mL
  proportion of PSA failures: 29.2%
Patients with metastatic disease at baseline
  proportion of PSA failures: 21.6%
